According to ChEMBL document CHEMBL1201862, “PubChem BioAssay data set” (2004):
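Assay format: 96-well plates, 48-hour exposure. Here, GI50 denotes the concentration required for 50% inhibition of growth.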 The source made the active and inactive calls. Cut-off read from the data, not from the text of the source: active = GI50 up to about 1.1 µM and inactive = higher.

Key:
Experiment in all cases: NCI-60 cell line screen, 48 h
NCI-H226 = system: NCI-H226
OVCAR-8 = system: OVCAR-8
SK-MEL-5 = system: SK-MEL-5
HCT-116 = system: HCT-116
SK-OV-3 = system: SK-OV-3
CCRF-CEM = system: CCRF-CEM
HOP-62 = system: HOP-62
RXF 393 = system: RXF 393
IGROV-1 = system: IGROV-1
RPMI-8226 = system: RPMI-8226
HCT-15 = system: HCT-15
SK-MEL-28 = system: SK-MEL-28
NCI-H23 = system: NCI-H23
U-251 = system: U-251
LOX IMVI = system: LOX IMVI
CAKI-1 = system: CAKI-1
Malme-3M = system: Malme-3M
HOP-92 = system: HOP-92

| SMILES | GI50 (NCI-H226) | GI50 (OVCAR-8) | GI50 (SK-MEL-5) | GI50 (HCT-116) | GI50 (SK-OV-3) | GI50 (CCRF-CEM) | GI50 (HOP-62) | GI50 (RXF 393) | GI50 (IGROV-1) | GI50 (RPMI-8226) | GI50 (HCT-15) [µM] | GI50 (SK-MEL-28) | GI50 (NCI-H23) | GI50 (U-251) | GI50 (LOX IMVI) | GI50 (CAKI-1) | GI50 (Malme-3M) | GI50 (HOP-92) |
| --- | --- | --- | --- | --- | --- | --- | --- | --- | --- | --- | --- | --- | --- | --- | --- | --- | --- | --- |
| CS/C(=N/C#N)NCCc1c[nH]c2ccccc12 | > 100 µM (inactive) | > 100 µM (inactive) | 76 µM (inactive) | > 100 µM (inactive) | > 100 µM (inactive) | 48.2 µM (inactive) | > 100 µM (inactive) | > 100 µM (inactive) | > 100 µM (inactive) | 96.8 µM (inactive) | > 100 | > 100 µM (inactive) | > 100 µM (inactive) | > 100 µM (inactive) | > 100 µM (inactive) | – | – | – |
| COC(=O)C(C(=O)C(=O)Nc1ccc(C)cc1)c1nc2ccc([N+](=O)[O-])cc2nc1O (stereo not drawn) | > 100 µM (inactive) | > 100 µM (inactive) | 49.1 µM (inactive) | > 100 µM (inactive) | > 100 µM (inactive) | 36.1 µM (inactive) | > 100 µM (inactive) | > 100 µM (inactive) | > 100 µM (inactive) | – | > 100 | > 100 µM (inactive) | > 100 µM (inactive) | 37.6 µM (inactive) | > 100 µM (inactive) | > 100 µM (inactive) | > 100 µM (inactive) | – |
| COc1cc(/C=C(\C#N)C(=O)c2ccccc2)ccc1OCc1ccccc1 | > 100 µM (inactive) | > 100 µM (inactive) | > 100 µM (inactive) | > 100 µM (inactive) | > 100 µM (inactive) | > 100 µM (inactive) | > 100 µM (inactive) | – | > 100 µM (inactive) | > 100 µM (inactive) | > 100 | > 100 µM (inactive) | > 100 µM (inactive) | – | > 100 µM (inactive) | > 100 µM (inactive) | – | – |
| O=S(O)CCCSSc1ccccc1 | – | 26.5 µM (inactive) | 22.5 µM (inactive) | 37.7 µM (inactive) | 99.3 µM (inactive) | 7.67 µM (inactive) | 57.7 µM (inactive) | 22.9 µM (inactive) | 14.7 µM (inactive) | – | 35.5 | 54.6 µM (inactive) | 66.7 µM (inactive) | 26.4 µM (inactive) | 29.3 µM (inactive) | 27 µM (inactive) | 67 µM (inactive) | – |
| O=C(NC(=O)c1cn(CCN(CCO)C(=O)NCCCCCCNC(=O)N(CCO)CCn2cc(C(=O)NC(=O)OCc3ccccc3)c(=O)[nH]c2=O)c(=O)[nH]c1=O)OCc1ccccc1 | – | > 100 µM (inactive) | > 100 µM (inactive) | > 100 µM (inactive) | > 100 µM (inactive) | > 100 µM (inactive) | > 100 µM (inactive) | > 100 µM (inactive) | > 100 µM (inactive) | > 100 µM (inactive) | > 100 | > 100 µM (inactive) | > 100 µM (inactive) | > 100 µM (inactive) | > 100 µM (inactive) | > 100 µM (inactive) | > 100 µM (inactive) | > 100 µM (inactive) |
| CC1(C)COC(c2cccc3c2C(=O)c2cccc(Cl)c2-3)=N1 | – | 38.4 µM (inactive) | 25.3 µM (inactive) | – | 48.8 µM (inactive) | 43 µM (inactive) | – | 22.7 µM (inactive) | > 100 µM (inactive) | 31.7 µM (inactive) | 56.4 | 58.7 µM (inactive) | 52.5 µM (inactive) | 68.4 µM (inactive) | 51.9 µM (inactive) | 55 µM (inactive) | 84.7 µM (inactive) | – |
| CN(C)CC/C(=N\Nc1ccc(Cl)cc1)c1ccccc1 | – | 2.24 µM (inactive) | 1.7 µM (inactive) | 1.18 µM (inactive) | 2.22 µM (inactive) | 0.417 µM (active) | 1.68 µM (inactive) | 2.57 µM (inactive) | 1.28 µM (inactive) | 0.64 µM (active) | 0.327 | 1.52 µM (inactive) | 1.95 µM (inactive) | 0.513 µM (active) | 0.256 µM (active) | – | 1.98 µM (inactive) | – |
| CC(=O)C1C(c2ccc(N(C)C)cc2)c2cc3c(cc2OC1(C)O)OCO3 (stereo not drawn) | – | 73.5 µM (inactive) | 30.8 µM (inactive) | 39.8 µM (inactive) | 55.3 µM (inactive) | 32.5 µM (inactive) | > 100 µM (inactive) | 33.3 µM (inactive) | 77.8 µM (inactive) | 26.7 µM (inactive) | 41.3 | 57.4 µM (inactive) | 59 µM (inactive) | 52.7 µM (inactive) | 42.1 µM (inactive) | 20.5 µM (inactive) | 53 µM (inactive) | 8.32 µM (inactive) |
| O=C(CC(CC(=O)Oc1c(Br)cc(Br)cc1C(=O)O)C(=O)Oc1c(Br)cc(Br)cc1C(=O)O)Oc1c(Br)cc(Br)cc1C(=O)O | 20.7 µM (inactive) | 19.3 µM (inactive) | > 100 µM (inactive) | 43.6 µM (inactive) | 54.7 µM (inactive) | 41.6 µM (inactive) | 46.5 µM (inactive) | – | 29 µM (inactive) | 33.7 µM (inactive) | 43.8 | > 100 µM (inactive) | 36.4 µM (inactive) | 46.6 µM (inactive) | 30.8 µM (inactive) | 72.6 µM (inactive) | 70.1 µM (inactive) | 16.5 µM (inactive) |
| CC(=O)OCC1OC(n2cc(F)c(=O)[nH]c2=O)C(NC(=O)N(CCCl)N=O)C(OC(C)=O)C1OC(C)=O (stereo not drawn) | – | > 100 µM (inactive) | > 100 µM (inactive) | > 100 µM (inactive) | > 100 µM (inactive) | > 100 µM (inactive) | > 100 µM (inactive) | – | > 100 µM (inactive) | > 100 µM (inactive) | – | > 100 µM (inactive) | > 100 µM (inactive) | 88.9 µM (inactive) | 43.3 µM (inactive) | > 100 µM (inactive) | > 100 µM (inactive) | > 100 µM (inactive) |
| CC(=O)Nc1cc2c(s1)CCC1CC(=O)NN=C21 (stereo not drawn) | > 100 µM (inactive) | > 100 µM (inactive) | > 100 µM (inactive) | > 100 µM (inactive) | – | > 100 µM (inactive) | > 100 µM (inactive) | > 100 µM (inactive) | > 100 µM (inactive) | > 100 µM (inactive) | > 100 | > 100 µM (inactive) | > 100 µM (inactive) | > 100 µM (inactive) | > 100 µM (inactive) | – | > 100 µM (inactive) | – |
| CN(C)c1ccc(-c2nc(N)nc3c2CCCC3)cc1 | 51.3 µM (inactive) | 74.5 µM (inactive) | 34.7 µM (inactive) | 38.3 µM (inactive) | > 100 µM (inactive) | 50.5 µM (inactive) | 99.1 µM (inactive) | 34 µM (inactive) | 64.4 µM (inactive) | 30 µM (inactive) | – | 61.8 µM (inactive) | 64.7 µM (inactive) | 53.7 µM (inactive) | 31.3 µM (inactive) | 52.1 µM (inactive) | 46.1 µM (inactive) | – |
| O=C(N/C(=C\c1ccccc1O)c1nc2ccccc2[nH]1)c1ccccc1 | – | 66.1 µM (inactive) | 95.7 µM (inactive) | 89.7 µM (inactive) | 36.1 µM (inactive) | > 100 µM (inactive) | 79.6 µM (inactive) | > 100 µM (inactive) | > 100 µM (inactive) | > 100 µM (inactive) | > 100 | > 100 µM (inactive) | 40.6 µM (inactive) | > 100 µM (inactive) | 42.1 µM (inactive) | > 100 µM (inactive) | > 100 µM (inactive) | 23.8 µM (inactive) |
